From article PMC3648545, “A Phenylalanine to Serine Substitution within an O-Protein Mannosyltransferase Led to Strong Resistance to PMT-Inhibitors in Pichia pastoris” (PLoS ONE, 2013)

Target: T1, Pmt2p (PpPmt2p) (Komagataella phaffii, UniProt F2QTJ8)
T1 construct: gene PMT2; full-length native integral ER membrane protein in intact cells (chromosomal PMT2); Pmt1p-Pmt2p heterodimer, other PMTs also present; with Dolichyl-phosphate-mannose--protein mannosyltransferase 1
Assay: HPAEC-PAD of O-mannosylglycan site occupancy on mAb#[…] secreted by intact cells
Type: cell-based
Settings: fed-batch fermentation, PMTi-4 8 µM (Figure 4 legend; Discussion prints 8 mM); read-out is total O-mannosylation by all PMTs, not isolated Pmt2p; direct binding not shown

T1 sequence (F2QTJ8 entry or part of it): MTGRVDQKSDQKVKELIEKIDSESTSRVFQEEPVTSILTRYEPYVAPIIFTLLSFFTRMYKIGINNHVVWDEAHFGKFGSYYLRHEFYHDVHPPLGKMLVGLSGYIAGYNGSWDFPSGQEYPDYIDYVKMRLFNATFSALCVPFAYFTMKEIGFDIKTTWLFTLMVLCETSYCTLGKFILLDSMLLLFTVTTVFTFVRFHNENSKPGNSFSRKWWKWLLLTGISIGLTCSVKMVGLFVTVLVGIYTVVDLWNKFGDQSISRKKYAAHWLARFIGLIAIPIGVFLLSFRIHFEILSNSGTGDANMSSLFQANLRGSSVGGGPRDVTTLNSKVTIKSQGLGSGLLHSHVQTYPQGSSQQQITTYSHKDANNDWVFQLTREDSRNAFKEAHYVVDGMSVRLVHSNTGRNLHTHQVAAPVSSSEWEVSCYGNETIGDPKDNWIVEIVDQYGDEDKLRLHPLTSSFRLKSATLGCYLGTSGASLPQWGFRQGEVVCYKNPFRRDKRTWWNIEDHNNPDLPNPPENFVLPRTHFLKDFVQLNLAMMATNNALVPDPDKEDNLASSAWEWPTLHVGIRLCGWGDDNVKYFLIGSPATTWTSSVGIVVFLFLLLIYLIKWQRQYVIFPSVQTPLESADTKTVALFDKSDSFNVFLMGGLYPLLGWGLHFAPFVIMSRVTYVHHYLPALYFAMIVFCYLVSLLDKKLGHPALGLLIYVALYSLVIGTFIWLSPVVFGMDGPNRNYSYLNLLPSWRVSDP

PMTi-4
O-mannosylglycan site occupancy: 3.1 O-mannose chains per mAb H2L2 (56 without inhibitor)
